Results on 17 molecules are retold here after ChEMBL document CHEMBL5321239, “Exploration of imatinib and nilotinib-derived templates as the P2-Ligand for HIV-1 protease inhibitors: Design, synthesis, protein X-ray structural studies, and biological evaluation” (Eur J Med Chem, 2023).

Assay [1] deals with Human immunodeficiency virus. The assay can be described thus: Antiviral activity against HIV LAI infected in human MT2 cells assessed as inhibition of viral growth. The note with it: Human immunodeficiency virus 1, LAI. It counts as functional, organism-based.
Assay [2] has as its target Human immunodeficiency virus type 1 protease (Human immunodeficiency virus 1, UniProt Q72874). Put plainly: Inhibition of HIV-1 protease expressed in Escherichia coli assessed as inhibition constant using Ac-Thr-Ile-Met-Met-Gln-Arg as substrate preincubated for 10 mins followed by substrate addition by HPLC analysis.

A word on the IC50: it is the concentration at which inhibition is half-maximal. Take `CC(C)CN(C[C@@H](O)[C@H](Cc1ccccc1)NC(=O)O[C@H]1CO[C@H]2OCC[C@H]21)S(=O)(=O)c1ccc(N)cc1`: in assay [1], the IC50 was 2.1 nM.

With `COCc1csc(Nc2ccc(C)c(C(=O)N[C@@H](Cc3ccccc3)[C@H](O)CN(CC(C)C)S(=O)(=O)c3ccc(OC)cc3)c2)n1`, the IC50 in assay [1] is 630 nM.

As for `COc1ccc(S(=O)(=O)N(CC(C)C)C[C@@H](O)[C@H](Cc2cc(F)cc(F)c2)NC(=O)c2ccc(C)c(Nc3nccc(-c4cccnc4)n3)c2)cc1`, the IC50 in assay [1] came out at 124 nM.

Consider `COc1ccc(S(=O)(=O)N(CC(C)C)C[C@@H](O)[C@H](Cc2ccccc2)NC(=O)c2cc(C)cc(Nc3nc(-c4cccnc4)cs3)c2)cc1`, for which, in assay [1], the IC50 was above 1000 nM.

On to `COc1ccc(S(=O)(=O)N(CC(C)C)C[C@@H](O)[C@H](Cc2ccccc2)NC(=O)c2cccc(Nc3nc(C(F)(F)F)cs3)c2C)cc1`, for which, in assay [1], the IC50 was above 1000 nM.

In general, Ki refers to the equilibrium dissociation constant of an inhibitor or competing ligand from its target. On to `COc1ccc(S(=O)(=O)N(CC(C)C)C[C@@H](O)[C@H](Cc2ccccc2)NC(=O)c2ccc(C)c(Nc3nc(C)cs3)c2)cc1`, for which, in assay [1], the IC50 is above 1000 nM. The Ki in assay [2] amounted to 26.5 nM.

Turning to `Cc1ccc(C(=O)N[C@@H](Cc2cc(F)cc(F)c2)[C@H](O)CN(CC(C)C)S(=O)(=O)c2ccc(N)cc2)cc1Nc1nccc(-c2cccnc2)n1`, in assay [1], the IC50 amounted to 212 nM.

Turning to `COc1ccc(S(=O)(=O)N(CC(C)C)C[C@@H](O)[C@H](Cc2ccccc2)NC(=O)c2cc(C)cc(Nc3nc(C)cs3)c2)cc1`, in assay [1], the half-inhibitory concentration (IC50) was above 1000 nM.

On to `COc1ccc(S(=O)(=O)N(CC(C)C)C[C@@H](O)[C@H](Cc2ccccc2)NC(=O)c2ccc(C)c(Nc3nccc(-c4cccnc4)n3)c2)cc1`, for which the IC50 in assay [1] turned out to be 154 nM. In addition, the Ki in assay [2] is 0.028 nM.

With `COc1ccc(S(=O)(=O)N(CC(C)C)C[C@@H](O)[C@H](Cc2ccccc2)NC(=O)c2cccc(Nc3nc(-c4cccnc4)cs3)c2C)cc1`, the IC50 in assay [1] was above 1000 nM. In addition, the Ki in assay [2] is 19.3 nM.

Consider `Cc1ccc(C(=O)N[C@@H](Cc2ccccc2)[C@H](O)CN(CC(C)C)S(=O)(=O)c2ccc(N)cc2)cc1Nc1nccc(-c2cccnc2)n1`, for which, in assay [1], the IC50 came out at 66.8 nM.

Take `COc1ccc(S(=O)(=O)N(CC(C)C)C[C@@H](O)[C@H](Cc2ccccc2)NC(=O)c2ccc(C)c(Nc3nc(C(F)(F)F)cs3)c2)cc1`: in assay [1], the IC50 was above 1000 nM.

For `COc1ccc(S(=O)(=O)N(CC(C)C)C[C@@H](O)[C@H](Cc2ccccc2)NC(=O)c2ccc(C)c(Nc3nc(-c4cccnc4)cs3)c2C)cc1`, the IC50 in assay [1] was 510 nM.

In the case of `COc1ccc(S(=O)(=O)N(CC(C)C)C[C@@H](O)[C@H](Cc2ccccc2)NC(=O)c2cc(Nc3nc(-c4cccnc4)cs3)ccc2C)cc1`, in assay [1], the IC50 came out at 580 nM. Also, in assay [2], the Ki amounted to 8.7 nM.

Turning to `COc1ccc(S(=O)(=O)N(CC(C)C)C[C@@H](O)[C@H](Cc2ccccc2)NC(=O)c2cccc(Nc3nc(C)cs3)c2C)cc1`, in assay [1], the IC50 is above 1000 nM.

In the case of `COc1ccc(S(=O)(=O)N(CC(C)C)C[C@@H](O)[C@H](Cc2ccccc2)NC(=O)c2cc(Nc3nc(C)cs3)ccc2C)cc1`, the IC50 in assay [1] was above 1000 nM.

With `COc1ccc(S(=O)(=O)N(CC(C)C)C[C@@H](O)[C@H](Cc2ccccc2)NC(=O)c2ccc(C)c(Nc3nc(-c4cccnc4)cs3)c2)cc1`, in assay [1], the IC50 turned out to be 390 nM.
